Experimental data published in patent publication US20040192641A1, “Special preparation of anticancer drugs made by novel nanotechnology” (priority 2003, published 2004).
Marks after values point to notes of the source that are not given here.

Experiments:
[1] = system: tumor S-180; test: Survival time of tumor-bearing mice (CUR); conditions: mouse, in vivo
Source text: The acceptable criterion for determining the anti-tumor efficacy of the free CUR and PK-CUR-NP are the determination of the life span prolongation.
The number of dead cells in the peritoneal fluid of mice treated with PK-CUR-NP increased life span when compared to free CUR.

[2] = system: L1210 leukemia cells; test: Anti-leukemia activity against lymphoid leukemia L1210 in mice (survival); format: in vivo; conditions: Example 54; i.p. once a day; dose 1, 10, 20 mg/kg/day, group not stated
Experimental: Animals: Adult DBA/2J male mice, 6 to 8 weeks old. All animals weighed approximately 25 g when used in experiments. Mice were assigned randomly to treatment and control groups. Each member of which received identical dosed (i.p.) of PK or 0.9% NaCl solution for all injections. Volumes were 0.01 ml/g body weight.
Tumor: L1210 or P388 leukemia cells induced in mice by inoculation with L1210 or P388 leukemia cells (1.0×10^5).
The leukemia cells were passed i.p. weekly. L1210 or P388 cells were cultured at 37° C. in RPMI-1640 medium (GIBCO) without antibiotics and supplemented with 10% fetal calf serum.
After the tumor implantation (1×10^5 leukemia cells), PK was injected intraperitoneally once a day. The treatment was started between the end of 2nd and 6th day after inoculation. Dose of PK was 25 mg/kg/day for PK groups. Control mice were treated with same value of 0-9% NaCl. Anti-leukemia activity was expressed as T/C %. T is median survival days of treated group and C is that of control group. A T/C value was greater that 100% means the treated mice is surviving longer than the control mice. […] The statistical significance of data was determined by student's test. […]
After the tumor implantation (1×10^5 leukemia cells), PK-HHT-SSL was injected intraperitoneally once a day. […] Anti-leukemia activity was expressed as T/C %. […] The statistical significance of data was determined by student's test.

[3] = system: sarcoma-180 solid tumors; test: Effect on sarcoma-180 solid tumors in mice (survival); format: in vivo; conditions: Example 54; percentage survival, 30 days observation after tumor cell inoculation
[4] = system: tyrosine kinase (TK); test: Tyrosine kinase (TK) activity of HL-60 leukemia cells; format: cell-based, human; conditions: 24 hours
Experimental: H-60 leukemia cells were plated at a density of 5×10^5 cells in […], and divided control and treatments groups for incubation 24 hours at 37° C. with 5% CO2. The cells were collected and washed twice with phosphate-buffered saline and re-suspended at density of 10^6 cells/ml in 5 mM HEPEs buffer (pH 7.4). The cells were then re-suspended in 1 ml of buffer containing 5 mM HEPES (pH 7.6), 1 mM MgCl2 and 1 mM EDTA, then placed on ice bath. The cell membrane was disrupted by ultra sound and centrifuged at 1000×g for 10 minutes. The supernatant was ultra centrifuged at 30,000×g for 30 minutes at 4° C. The pellet was re-suspended in 0.3 ml of buffer containing 25 mM HEOES, centrifuged at 12,000×g for 5 minutes. The resulting supernatant was used for TK assay. Content of protein was determined. 10 μg of protein placed in 20 mM HEPES (pH 7.6), 15 mM MgCl2, 10 mM ZnCl2 and 5% (v/v) Nonidet P-40. After 5 minutes incubation at 25° C., the reaction was initiated by the addition of 25 μM [γ^32P] ATP (3 ci/mmol). After 10 minutes, the reaction was stopped by the addition of 20 mM cold ATP. […] Radioactivity was determined by liquid scintillation spectrometry. The net TK activity was determined after correcting for endogenous TK activity.

[5] = system: HL-60 cells; test: Differentiation of human leukemic cells (HL-60), Example 57; format: cell-based
Experimental: Cell Lines. HL-60 cells were established from a patient with acute myeloid leukemia. The cells were cultured in culture flasks with RPMI plus 10% FCS.
Studies of Induction of Differentiation. Differentiation of HL-60 cells was assessed by their abilities to produced superoxide as measured by reduction of NBT, by NSE staining and by morphology as detected on cytospin preparations stained with Diff-Quick stain Set, and by analysis of membrane-bound differentiation markers with two-color immunofluorescence. Briefly, cells were preincubated at 4° C. for 60 min in 10% human AB serum and then with FITC-conjugated mouse IgGI isotype control. Analysis of fluorescence was performed on a flow cytometer.
Cell Cycle Analysis. The cell cycle was analyzed by flow cytometry after 60 h of incubation of HL-60 cells either with or without HHT (10^−8 M) as described. Briefly, the cells were fixed in cold methanol and incubated for 30 min at 4° C. in the dark with a solution of 50 μg/ml propidium iodide, 1 mg/ml Rnase, and 0.1% NP40. Analysis was performed immediately after staining using the CELLFIT program whereby the S-phase was calculated with Rfit model.
Clonogenic Assay in soft Agar. HL-60 cells were culture in a two-layer soft agar system for 10 days without adding any growth factors as described previously, and colonies were counted using an inverted microscope. […]

[6] = system: gastric cancer cells; test: Differentiation of gastric cancer cells; format: cell-based
Experimental: The gastric cancer cells and normal cells were cultured in PRMI 1640 medium supplement with 10% FCS serum. Other method is similar to example 1.

## C=C1C[C@@]2(O)O[C@@]3(C[C@H]2C(C)C)[C@@H](C)CC[C@@H]13 [CUR, Curcumol]
[1]
  Increase in life span T/C (%): 134.78%
  MST: 31 ± 1.9 days

## COC(=O)C[C@](O)(CCCC(C)(C)O)C(=O)O[C@@H]1C(OC)=C[C@]23CCCN2CCc2cc4c(cc2[C@H]13)OCO4 [HHT, Homoharringtonine]
[2]
  Survival time: 15.6 ± 2.8 days
[3]
  Mean survival (%): 58.6%
[4]; Concentration 10^−6 M
  % of control activity (TK): 20.8%
[4]; Concentration 10^−7 M
  % of control activity (TK): 14.8%
[5]
  NBT (%): 65* %
[6]
  NBT (%): 58* %
  NSE (%): 60* %
